Experimental data taken from patent US20110086762A1, “4'4'-Dioxaspiro-Spirocyclically Substituted Tetramates” (Bayer CropScience AG, priority 2008, published 2011).

Key:
Myzus persicae = Myzus persicae test MYZUPE (bell pepper plants); assay type: in vivo, green peach aphid (Myzus persicae)
Description: (§1) Solvent: 7 parts by weight of dimethylformamide Emulsifier: 2 parts by weight of alkylaryl polyglycol ether To produce a suitable preparation of active compound, 1 part by weight of active compound is mixed with the stated amounts of solvent and emulsifier, and the concentrate is diluted with emulsifier-containing water to the desired concentration. If the addition of ammonium salts, penetrant or ammonium salts and penetrant is required, these are pipetted in at a concentration of 1000 ppm after dilution of the respective finished solution of the preparation. Bell pepper plants (Capsicum annuum) which are heavily infested by the green peach aphid (Myzus persicae) are treated by spraying with the active compound preparation of the desired concentration. After the desired period of time, the kill in % is determined. Here, 100% means that all of the animals have been killed; 0% means that none of the animals have been killed.

Tetranychus urticae [1] = assay: Tetranychus test, OP-resistant (bean plants); assay type: in vivo, greenhouse red spider mite (Tetranychus urticae); settings: TETRUR, active compound conc. 4 ppm
Description: Solvent: 7 parts by weight of dimethylformamide Emulsifier: 2 parts by weight of alkylaryl polyglycol ether To produce a suitable preparation of active compound, 1 part by weight of active compound is mixed with the stated amounts of solvent and emulsifier, and the concentrate is diluted with emulsifier-containing water to the desired concentration. If the addition of ammonium salts, penetrant or ammonium salts and penetrant is required, these are pipetted in at a concentration of 1000 ppm after dilution of the respective finished solution of the preparation. Bean plants (Phaseolus vulgaris) which are heavily infested by all stages of the greenhouse red spider mite (Tetranychus urticae) are treated by spraying with the active compound preparation of the desired concentration. After the desired period of time, the effect in % is determined. Here, 100% means that all of the spider mites have been killed; 0% means that none of the spider mites have been killed.

Aphis gossypii [2] = assay: Example C-2: plot trial on cotton 'Fibermax' against Aphis gossypii; assay type: in vivo; settings: 105 g a.i./ha, standard (SC 050)
Description: In plots of a size of 10 m^2, cotton plants of the cultivar “Fibermax” are treated in three replications against Aphis gossypii using a pressure-operated knapsack sprayer (2.5 bar). Here, the active compound A.5 is applied as SC050 and SL050 at the stated application rate in a tank mix of 1 g/l of ammonium sulphate and 1 g/l of a.i. rapeseed oil methyl ester EW 500 in comparison to the standard imidacloprid (SC 050) using an application rate of 300 l of water/ha. Evaluation is carried out 3, 6, 9, 13 and 17 days after the application by counting the number of live animals on the leaves. Subsequently, the efficacy in percent is calculated according to Henderson and Tilton.

Aphis gossypii [3] = assay: Aphis gossypii test, APHIGO spray treatment (cotton leaves); assay type: in vivo, cotton aphid (Aphis gossypii); settings: active compound conc. 0.8 ppm
Description: as §1, with “the preparation. Cotton leaves (Gossypium hirsutum) which are” for “the preparation. Bell pepper plants (Capsicum annuum) which are”, “by the cotton aphid (Aphis” for “by the green peach aphid (Myzus”, “cotton aphid (Aphis gossypii) are sprayed” for “peach aphid (Myzus persicae) are treated”, “gossypii) are sprayed with an” for “persicae) are treated by spraying with the”, “sprayed with an active compound” for “spraying with the active compound”, “of the aphids have been” for “of the animals have been”

Tetranychus urticae [4] = assay: Example C-3: plot trial on cotton 'Fibermax 977' against Tetranychus urticae; assay type: in vivo; settings: 9 g a.i./ha, standard (EC 018), two applications 8 days apart
Description: In plots of a size of 15 m^2, cotton plants of the cultivar “Fibermax 977” are treated in three replications against Tetranychus urticae using a pressure-operated knapsack sprayer (4 bar). Here, the active compound A.5 is applied as SC050 and SL050 at the stated application rate in a tank mix of 1 g/l of ammonium sulphate and 1 g/l of a.i. rapeseed oil methyl ester EW 500 and the standard abamectin (EC 018) using an application rate of in each case 300 l of water/ha. Two applications are carried out at an interval of 8 days. Evaluation is carried out 3, 7, 11 and 15 days after the first application by scoring the kill of the spider mites on the leaves.

[5] = Penetration of active compounds through enzymatically isolated cuticles of apple leaves; assay type: in vitro ADME, apple trees of the Golden Delicious variety; settings: apple leaf cuticles, 20° C., 60% rh, average of 8 to 10 measurements
Text: Boosting of penetration into the plant by ammonium salts or phosphonium salts, and synergistic boosting of penetration into the plant by ammonium/phosphonium salts in combination with penetration promoters This test measured the penetration of active compounds through enzymatically isolated cuticles of apple leaves. The leaves used were cut in the fully developed state from apple trees of the Golden Delicious variety. The cuticles were isolated as follows: • first of all, leaf discs labelled on the underside with dye and formed by punching were filled by means of vacuum infiltration with a pectinase solution (0.2% to 2% strength) buffered to a pH of between 3 and 4, • sodium azide was then added and • the leaf discs thus treated were left to stand until the original leaf structure broke down and the non-cellular cuticle underwent detachment. After that, only those cuticles from the top leaf sides that were free from stomata and hairs were used further. They were washed a number of times in alternation with water and with a buffer solution, pH 7. […] Penetration was determined by applying 10 μl of the spray liquor of the composition below to the outer side of each of the cuticles. […] At regular intervals, samples were taken using an autosampler, and the amount of active compound was determined using HPLC. […]

Cc1cc(Cl)cc(C)c1C1=C(O)C2(CCC3(CC2)OCCO3)NC1=O [A.4]
% effect after 7 d (Myzus persicae; active compound conc. 10 ppm): 100%

Cc1cc(Cl)cc(C)c1C1=C(O)C2(CCC3(CC2)OCCO3)NC1=O [A.6]
% effect after 7 d (Myzus persicae; active compound conc. 10 ppm): 95%

Cc1cc(C)c(C2=C(O)C3(CCC4(CC3)OCCO4)NC2=O)c(C)c1 [A.2]
% effect after 7 d (Myzus persicae; active compound conc. 0.8 ppm): 90% | % effect after 7 d (Tetranychus urticae [1]): 70%

O=[N+]([O-])NC1=NCCN1Cc1ccc(Cl)nc1 [imidacloprid]
Efficacy (% H + T) Aphis gossypii 3 d (Aphis gossypii [2]; 3 d): 78.1% | Efficacy (% H + T) Aphis gossypii 6 d (Aphis gossypii [2]; 6 d): 84.1% | Efficacy (% H + T) Aphis gossypii 9 d (Aphis gossypii [2]; 9 d): 83.7% | Efficacy (% H + T) Aphis gossypii 13 d (Aphis gossypii [2]; 13 d): 82.0% | Efficacy (% H + T) Aphis gossypii 17 d (Aphis gossypii [2]; 17 d): 64.7%

Cc1cc(C)c(C2=C(O)C3(CCC4(CC3)OCCO4)NC2=O)c(C)c1.[K+] [Example A.1]
% effect after 7 d (Myzus persicae; active compound conc. 0.8 ppm): 75%

Cc1cc(Cl)cc(C)c1C1C(=O)NC2(CCC3(CC2)OCCO3)C1=O (stereo not shown) [Ex. I-1-a-4, 8,8′-ethylenedioxy-3-[(2,6-dimethyl-4-chloro)-phenyl]-1-azaspiro[4,5]-decane-2,4-dione]
% effect after 7 d (Myzus persicae; active compound conc. 10 ppm): 75%

Cc1cc(C)c(C2=C(O)C3(CCC4(CC3)OCCO4)NC2=O)c(C)c1 [A.3]
% effect after 7 d (Myzus persicae; active compound conc. 0.8 ppm): 75% | % effect after 7 d (Aphis gossypii [3]): 75%

abamectin
Effect Abbott (%) Tetranychus urticae 3 d (Tetranychus urticae [4]; 3 d after first application): 49.3% | Effect Abbott (%) Tetranychus urticae 7 d (Tetranychus urticae [4]; 7 d after first application): 27.2% | Effect Abbott (%) Tetranychus urticae 11 d (Tetranychus urticae [4]; 11 d after first application): 5.8% | Effect Abbott (%) Tetranychus urticae 15 d (Tetranychus urticae [4]; 15 d after first application): 40.7%

Cc1cc(Cl)cc(C)c1C1=C(O)C2(CCC3(CC2)OCCO3)NC1=O [Example A.5]
Penetration after 24 h ([5]; SC 050 + RME (1 g/l) + AS (1 g/l)): 3% | Penetration after 24 h ([5]; SL 050 + RME (1 g/l) + AS (1 g/l)): 7%
